This is an account of results in ChEMBL document CHEMBL1773004, “1-[(1-methyl-1H-imidazol-2-yl)methyl]-4-phenylpiperidines as mGluR2 positive allosteric modulators for the treatment of psychosis” (J Med Chem, 2011).

Where only a bound is given, the exact number is not on record here.

The target of experiment [1] is Metabotropic glutamate receptor 2 (Rattus norvegicus, UniProt P31421). As to the kind of experiment: Positive allosteric modulation of rat mGluR2 expressed in HEK293 cells co-expressing Galpha15 G protein assessed as increase in glutamate-induced intracellular calcium release by FLIPR assay. It counts as functional, cell-based.
The next experiment addresses D(2) dopamine receptor (Rattus norvegicus, UniProt P61169). Briefly: Displacement of [3H]spiperone from dopamine D2 receptor in rat corpus striatum by beta plate scintillation counting. It counts as tissue-based.

Chain of Metabotropic glutamate receptor 2 (P31421 whole entry): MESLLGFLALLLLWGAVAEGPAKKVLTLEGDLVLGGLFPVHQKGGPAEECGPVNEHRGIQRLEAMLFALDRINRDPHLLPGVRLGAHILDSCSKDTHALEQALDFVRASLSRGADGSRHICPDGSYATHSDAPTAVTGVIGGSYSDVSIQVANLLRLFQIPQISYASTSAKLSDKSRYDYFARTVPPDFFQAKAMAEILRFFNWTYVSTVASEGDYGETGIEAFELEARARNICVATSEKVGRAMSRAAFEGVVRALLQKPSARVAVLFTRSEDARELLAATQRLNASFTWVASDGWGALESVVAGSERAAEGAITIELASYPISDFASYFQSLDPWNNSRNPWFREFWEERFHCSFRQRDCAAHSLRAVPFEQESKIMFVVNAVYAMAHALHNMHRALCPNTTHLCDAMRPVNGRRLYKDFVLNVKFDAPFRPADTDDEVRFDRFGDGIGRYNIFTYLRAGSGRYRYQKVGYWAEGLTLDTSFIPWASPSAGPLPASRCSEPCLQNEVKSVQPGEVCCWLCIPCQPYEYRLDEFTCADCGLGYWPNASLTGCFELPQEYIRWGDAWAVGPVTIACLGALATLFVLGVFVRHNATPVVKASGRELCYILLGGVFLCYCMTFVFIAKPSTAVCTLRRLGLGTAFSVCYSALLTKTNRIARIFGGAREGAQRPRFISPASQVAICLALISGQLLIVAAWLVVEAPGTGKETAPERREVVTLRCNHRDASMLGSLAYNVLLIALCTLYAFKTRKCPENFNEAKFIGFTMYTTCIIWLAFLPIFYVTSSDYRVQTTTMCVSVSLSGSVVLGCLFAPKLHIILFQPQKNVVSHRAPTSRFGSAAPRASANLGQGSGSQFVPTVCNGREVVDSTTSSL
Chain of D(2) dopamine receptor (P61169 whole entry): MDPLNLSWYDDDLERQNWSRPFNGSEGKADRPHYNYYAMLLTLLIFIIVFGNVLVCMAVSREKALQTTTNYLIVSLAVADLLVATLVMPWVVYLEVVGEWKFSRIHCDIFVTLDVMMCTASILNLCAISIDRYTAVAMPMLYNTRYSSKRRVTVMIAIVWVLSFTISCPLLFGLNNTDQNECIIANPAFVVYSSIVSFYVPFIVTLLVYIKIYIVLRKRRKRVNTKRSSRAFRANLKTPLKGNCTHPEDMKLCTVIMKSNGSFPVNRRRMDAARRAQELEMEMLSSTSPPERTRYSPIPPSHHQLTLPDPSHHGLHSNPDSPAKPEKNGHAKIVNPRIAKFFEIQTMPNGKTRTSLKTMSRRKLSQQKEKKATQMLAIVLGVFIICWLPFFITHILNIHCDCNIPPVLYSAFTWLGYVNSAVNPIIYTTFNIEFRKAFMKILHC

Consider `Cn1c(CN2CCC(c3ccc(C(F)(F)F)cc3)C(O)C2)nc2ncccc21` (trans isomer), for which, in experiment [1], the EC50 is more than 10 µM.

In the case of `Cn1c(CN2CCC(c3ccccc3)CC2)nc2ccccc21`, in experiment [1], the EC50 is 0.212 µM.

As for `COc1cc(C(F)(F)F)ccc1[C@H]1CCN(Cc2nc3ncccc3n2C)C[C@H]1C`, the concentration for a half-maximal effect (EC50) in experiment [1] came out at 0.787 µM.

For `Cn1c(CN2CCC(c3ccc(Cl)cc3F)CC2)nc2ccccc21`, the 50% effective concentration (EC50) in experiment [1] was 0.0076 µM.

`C[C@@H]1CN(Cc2nc3ncccc3n2C)CC[C@@H]1c1ccc(C(F)(F)F)cc1F`: the EC50 in experiment [1] was 0.993 µM.

For the compound `COc1cc(C(F)(F)F)ccc1C1CCN(Cc2nc3ncccc3n2C)CC1`, the EC50 in experiment [1] was found to be 0.013 µM. Moreover, at D(2) dopamine receptor, the inhibition constant Ki was determined as 2.43 µM.

On to `Cn1c(CN2CCC(c3ccc(F)cc3)CC2)nc2ccccc21`, for which the EC50 in experiment [1] worked out at 0.159 µM. The Ki on D(2) dopamine receptor is 0.024 µM.

For the compound `Cn1c(CN2CCC(c3ccc(C(F)(F)F)cc3)CC2)nc2cccnc21`, the EC50 in experiment [1] is 0.285 µM.

Take `Cn1c(CN2CCC(c3ccc(C(F)(F)F)cc3)CC2)nc2ccncc21`: the concentration giving a half-maximal response (EC50) in experiment [1] stood at 0.196 µM.

Consider `COc1ccccc1N1CCN(Cc2c(Br)c(=O)n(-c3ccccc3)n2C)CC1`, for which the EC50 in experiment [1] came to 0.891 µM.

`CNC(=O)c1cccc(C2CCN(Cc3nc4ccccc4n3C)CC2)c1`: the EC50 in experiment [1] was more than 10 µM.

For the compound `Cn1c(CN2CCC(c3ccc(C(F)(F)F)cc3)CC2)nc2ccccc21`, the EC50 in experiment [1] was 0.078 µM. For the same compound, the Ki at D(2) dopamine receptor is 0.561 µM.

As to `Cn1c(CN2CCC(c3ccccc3C(F)(F)F)CC2)nc2ccccc21`, the EC50 in experiment [1] was determined as 0.109 µM.

For the compound `Cn1c(CN2CCC(c3ccc(C(F)(F)F)cc3F)CC2)nc2ncccc21`, the 50% effective concentration (EC50) in experiment [1] came out at 0.0251 µM. On D(2) dopamine receptor, this compound showed a Ki of 1.78 µM.

On to `Cn1c(CN2CCC(c3cccc(C#N)c3)CC2)nc2ccccc21`, for which the EC50 in experiment [1] was found to be 1.62 µM.

On to `Cn1c(CN2[C@@H]3CC[C@H]2CC(c2ccc(C(F)(F)F)cc2)C3)nc2ncccc21` (some centres not stated), for which the EC50 in experiment [1] came to 0.184 µM. The affinity on D(2) dopamine receptor, expressed as Ki, was 0.355 µM.

Take `Cn1c(CN2CCC(c3ccccc3Cl)CC2)nc2ccccc21`: the EC50 in experiment [1] is 0.144 µM.

With `Cn1c(CN2CCC(c3ccccc3F)CC2)nc2ccccc21`, the EC50 in experiment [1] came out at 0.022 µM.

On to `C[C@@H]1CN(Cc2nc3ncccc3n2C)CC[C@@H]1c1ccc(C(F)(F)F)cc1`, for which, in experiment [1], the concentration giving a half-maximal response (EC50) was more than 1.99 µM. Moreover, the Ki on D(2) dopamine receptor is more than 2.8 µM.

For the compound `Cn1c(CN2CCC(c3ccc(C(F)(F)F)cc3)CC2)nc2cnccc21`, in experiment [1], the EC50 was determined as 0.168 µM. This compound displayed a Ki at D(2) dopamine receptor of 0.671 µM.

With `C[C@@H]1CN(Cc2nc3ncccc3n2C)CC[C@@H]1c1ccc(Cl)cc1F`, in experiment [1], the EC50 was more than 1.81 µM.

For `C[C@H]1CN(Cc2nc3ncccc3n2C)CC[C@H]1c1ccc(C(F)(F)F)cc1` (racemic), the concentration for a half-maximal effect (EC50) in experiment [1] was 0.111 µM. The compound further showed a Ki on D(2) dopamine receptor of more than 2.8 µM.

For the compound `C[C@@H]1C[C@H](c2ccc(C(F)(F)F)cc2)CCN1Cc1nc2ncccc2n1C`, in experiment [1], the concentration for a half-maximal effect (EC50) came to 0.454 µM. This compound also returned a Ki on D(2) dopamine receptor of 0.589 µM.

For the compound `Cn1c(CN2CC[C@@H](c3ccc(C(F)(F)F)cc3)C(C)(C)C2)nc2ncccc21`, the EC50 in experiment [1] was found to be 0.745 µM. On D(2) dopamine receptor, this compound showed an inhibition constant Ki of more than 2.8 µM.

On to `Cc1cc(C2CCN(Cc3nc4ccccc4n3C)CC2)nc(N2CCCC2)n1`, for which the concentration for a half-maximal effect (EC50) in experiment [1] turned out to be 4.79 µM.

On to `C[C@H]1CN(Cc2nc3ncccc3n2C)CC[C@H]1c1ccc(Cl)cc1F`, for which, in experiment [1], the half-maximal effective concentration (EC50) came out at 0.028 µM. This compound also had a Ki on D(2) dopamine receptor of 1.62 µM.

In the case of `Cn1c(CN2CCC(c3cccc(F)c3)CC2)nc2ccccc21`, the EC50 in experiment [1] is 3.31 µM.

Turning to `C[C@H]1CN(Cc2nc3ncccc3n2C)CC[C@H]1c1ccc(C(F)(F)F)cc1`, the EC50 in experiment [1] worked out at 0.033 µM. The inhibition constant (Ki) at D(2) dopamine receptor was more than 2.8 µM.

As to `Cn1c(CN2CCC(c3ccc(OC(F)(F)F)cc3F)CC2)nc2ncccc21`, in experiment [1], the EC50 amounted to 0.025 µM. The compound also displayed a Ki at D(2) dopamine receptor of 1.18 µM.
